Test results reported in patent US20110015267A1 (priority 2009, published 2011).
Entries after “also recorded” stand apart in the source; their conditions may differ. Structures can show the parent of a compound that is named as a salt.

Assays:
[1] = Method B: incremental addition of magnesium valproate salt to L-carnitine inner salt solution
[2] = Solubility limit of magnesium valproate salts in purified water USP (incremental addition)
Method: The experiment was repeated but valproate was added as L-carnitine magnesium valproate. Incremental portions of L-carnitine magnesium valproate were added to purified water until the solubility limit was reached, as indicated by the presence of white solid in the colorless aqueous supernatant. […] The solution was divided into portions, and known masses of L-carnitine inner salt, accurately weighed, were added to provide solutions having the compositions shown in Table 2. Each solution was tested by two analysts.

[3] = cited from earlier work
[4] = Sterilization of liquid dosage form by heating or filtration; assay type: physicochemical
Excerpt: Therefore, aqueous solutions of the invention must be prepared to be free of microbial contaminants. Most preferably, water that has been purified to meet US Pharmacopeial standards is used in preparing aqueous solutions of the invention. [U.S. Pharmacopeia, Volume 32. U.S. Pharmacopeial Convention, Rockville, Md. USP Monograph entitled “Purified Water” and chapter entitled “Water for Pharmaceutical Purposes”<1231>.] Water can be purified in known ways to be free of trace contaminants and microbes that cause undesirable side reactions when administered therapeutically to a subject. However, L-carnitine decomposes when subjected to heating. Therefore, the inventor has used aseptic processing and sterilization by filtration through a filter having a pore-size sufficiently small to allow passage of the composition of the invention through the pores but prevent passage of microbes to prepare compositions for pharmaceutical use.
A palatable liquid dosage form of the invention is divided into portions. Each portion is subjected to sterilization by (a) heating or (b) filtration through a filter membrane having a […] pore size.

[5] = Conventional valproates combined with L-carnitine inner salt in water; assay type: physicochemical; conditions: for Result When Combined With L-Carnitine Inner Salt in Water: dissolution / stability behaviour of the valproate in water
Excerpt: The inventor investigated methods for the preparation of long-needed, palatable liquid compositions having quantitatively precise defined proportions of valproate and L-carnitine in water. […] Instead, oily droplets of valproic acid adhered to the formulation vessel, making it impossible to formulate compositions having quantitatively precise defined proportions of valproate. […] This lack of purity renders it impossible to weigh calculated quantities of the magnesium valproate of '850 that are required for a quantitatively precise defined formulation and formulate a composition having the corresponding quantitatively precise defined proportions of valproate and L-carnitine; the weighed quantities of the magnesium valproate of '850 will contain variable proportions of impurities that are water-soluble, partially water-soluble, and water-insoluble as well as the magnesium valproate, and the resulting formulation will contain less than quantitatively precise proportions of valproate. […] Potassium valproate, cesium valproate, and rubidium valproate were not tested, because high concentrations of potassium, cesium, and rubidium are toxic.

[6] = reported; not tested by the inventor; cited from earlier work
[7] = cited from earlier work; remark: listed apart in the source
[8] = with about 1,000 mg/mL L-carnitine

CCCC(CCC)C(=O)[O-].CCCC(CCC)C(=O)[O-].C[N+](C)(C)C[C@H](O)CC(=O)[O-].[Mg+2] [L-carnitine magnesium valproate, L-Carnitine magnesium valproate]
valproate concentration at the limit of solubility ([1]; in aqueous L-carnitine inner salt, about 1,000 mg/mL L-carnitine): about 150 mg/mL | appearance of solution at the limit of solubility [1, 8]: clear and colorless | odor of solution at the limit of solubility [1, 8]: no odor | pH of solution [1, 8]: near neutral | taste of solution at the limit of solubility [1, 8]: no taste | solubility limit, valproate concentration of the solution [2]: about 150 mg/mL

CCCC(CCC)C(=O)O [valproate]
absorption from the gastrointestinal tract ([3]; all conventional dosage forms): rapidly and nearly completely absorbed | time of peak plasma concentrations after ingestion ([3]; all conventional dosage forms): 1 to 4 h | excreted in the urine as an L-carnitine ester ([3]; humans and other mammals): 3% | metabolized by β- and ω-oxidations in mitochondria and the cytosol ([3]; humans and other mammals): 17% | metabolized in the liver by direct glucuronidation ([3]; humans and other mammals): 80%

C[N+](C)(C)CC(O)CC(=O)[O-] [L-carnitine, L-Carnitine inner salt]
stability when subjected to heating [4]: decomposes

CCCC(CCC)C(=O)[O-].[Na+] [Sodium valproate]
Result When Combined With L-Carnitine Inner Salt in Water: solution appearance [5]: weighing. Solution was clear & | Result When Combined With L-Carnitine Inner Salt in Water [5]: rapidly adsorbed water from the atmosphere; also recorded: Sodium valproate is hygroscopic

Calcium valproate
carcinogenicity [6]: been reported to be carcinogenic.

CCCC(CCC)C(=O)O [Divalproex sodium]
Result When Combined With L-Carnitine Inner Salt in Water [5]: decomposed on addition to water

Magnesium valproate
Result When Combined With L-Carnitine Inner Salt in Water [5]: did not dissolve completely in water; also recorded: failed to dissolve completely;

Magnesium valproate hydrate
pH of solution [1, 8]: near neutral

CCCC(CCC)C(=O)O [Valproic acid, 2-propylpentanoic acid]
Result When Combined With L-Carnitine Inner Salt in Water ([5]; listed as valproic acid): poorly soluble in water | solubility in water [7]: very slightly soluble in water
